Results from PubChem BioAssay (NCI).
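Here, GI50 denotes the concentration required for 50% inhibition of growth. TGI: concentration producing complete growth inhibition.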

Assays:
Assay in all cases: NCI anticancer screen, dose series, 384-well format
HCT-116 colon = tested on: HCT-116 colon
MALME-3M melanoma = tested on: MALME-3M melanoma
TK-10 renal = tested on: TK-10 renal
NCI-H226 lung = tested on: NCI-H226 lung
BT-549 breast = tested on: BT-549 breast
ACHN renal = tested on: ACHN renal
IGROV1 ovarian = tested on: IGROV1 ovarian
EKVX NSCLC = tested on: EKVX NSCLC
OVCAR-4 ovarian = tested on: OVCAR-4 ovarian
SF-295 CNS = tested on: SF-295 CNS
OVCAR-3 ovarian = tested on: OVCAR-3 ovarian
SW-620 colon = tested on: SW-620 colon
HS 578T breast = tested on: HS 578T breast

Row | SMILES | GI50 (HCT-116 colon) [µM] | TGI (HCT-116 colon) [µM] | GI50 (MALME-3M melanoma) [µM] | TGI (MALME-3M melanoma) [µM] | GI50 (TK-10 renal) [µM] | TGI (TK-10 renal) [µM] | GI50 (NCI-H226 lung) [µM] | TGI (NCI-H226 lung) [µM] | GI50 (BT-549 breast) [µM] | TGI (BT-549 breast) [µM] | GI50 (ACHN renal) [µM] | TGI (ACHN renal) [µM] | GI50 (IGROV1 ovarian) [µM] | TGI (IGROV1 ovarian) [µM] | GI50 (EKVX NSCLC) [µM] | TGI (EKVX NSCLC) [µM] | GI50 (OVCAR-4 ovarian) [µM] | TGI (OVCAR-4 ovarian) [µM] | GI50 (SF-295 CNS) [µM] | TGI (SF-295 CNS) [µM] | also measured
1 | CS(=O)(=O)c1ccc(Oc2cc(F)cc(C#N)c2)c2c1[C@H](O)C(F)(F)C2 | > 100 | > 100 | > 100 | > 100 | > 100 | > 100 | > 100 | > 100 | > 100 | > 100 | > 100 | > 100 | > 100 | > 100 | > 100 | > 100 | > 100 | > 100 | > 100 | > 100 | GI50 (OVCAR-3 ovarian): > 100 µM; TGI (OVCAR-3 ovarian): > 100 µM; GI50 (SW-620 colon): > 100 µM; TGI (SW-620 colon): > 100 µM; GI50 (HS 578T breast): > 100 µM; TGI (HS 578T breast): > 100 µM
2 | CC(C)n1c(=O)n(C)c2cnc3cc(F)c(-c4ccc(OCCCN5CCCCC5)nc4)cc3c21 | 21.7 | > 100 | > 100 | > 100 | 51.7 | > 100 | 14.3 | > 100 | 9.56 | > 100 | > 60.2 | > 100 | > 100 | > 100 | 11.6 | > 100 | > 100 | > 100 | > 100 | > 100 | GI50 (OVCAR-3 ovarian): 38.9 µM; TGI (OVCAR-3 ovarian): > 100 µM; GI50 (SW-620 colon): 19.5 µM; TGI (SW-620 colon): > 75.8 µM; GI50 (HS 578T breast): 3.91 µM; TGI (HS 578T breast): 27.4 µM
